Measurements published in US11912723B2, “KRAS modulators and uses thereof” (Quanta Therapeutics, Inc., priority 2022, dated 2024).

Experiments:
[1] = biological target: T1, GST-tagged KRAS G12D (2-169) (Homo sapiens, UniProt P01116, G12D); assay: Nucleotide exchange assay (NEA), HTRF of SOS-mediated GTP-DY-647P1 binding; type: biochemical; conditions: 5 nM GST-KRAS G12D, 20 nM SOScat, 150 nM GTP; compound 1 h at RT
T1 construct: GST-tagged KRAS^G12D (2-169, Reaction Biology, MSC-11-539); purchased Reaction Biology MSC-11-539 (KRAS G12D); MSC-11-502 (SOS1cat)
T1 sequence (P01116 2-169 isoform P01116-2 G12D): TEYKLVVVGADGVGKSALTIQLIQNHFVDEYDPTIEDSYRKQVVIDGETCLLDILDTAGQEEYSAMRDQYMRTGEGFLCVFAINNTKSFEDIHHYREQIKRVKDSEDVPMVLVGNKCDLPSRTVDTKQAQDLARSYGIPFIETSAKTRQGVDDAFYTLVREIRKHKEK
Outline: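 After 1 h RT preincubation of compound with KRAS, SOS1cat (20 nM final) and fluorescent GTP analog (150 nM) were added to 5 nM KRAS; HTRF (anti-GST Tb donor) followed at RT for up to 90 min. % inhibition relative to DMSO and no-SOS1 blank, 4-parameter curve fit.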

[2] = system: AGS (KRAS G12D) cells, phospho-ERK; assay: pERK In Cell Western (ICW) assay (Method B); type: cell-based; conditions: Homo sapiens, 3 hours
Outline: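 AGS cells seeded at 5,000/well, grown overnight, then treated 3 h at 37 °C with ½-log 10-point dilutions (top 10 μM). Fixed cells stained for phospho-ERK, normalized to DRAQ5 DNA signal and to DMSO control; IC50 from 4-parameter variable-slope fit.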

Compound | IC50 [1] [nM] | IC50 [2] [µM]
CN(C)C(=O)c1nn2c(c1Cl)CN(c1nc(OC[C@@]34CCCN3C[C@H](F)C4)nc3c1CN(C)[C@@]1(CCc4c(Cl)cccc41)C3)CCC2 [Compound 55, 3-chloro-5-((S)-4-chloro-2′-(((2R,7aS)-2-fluorotetrahydro-1H-pyrrolizin-7a(5H)-yl)methoxy)-6′-methyl-2,3,5′,8′-tetrahydro-6′H-spiro[indene-1,7′-pyrido[4,3-d]pyrimidin]-4′-yl)-N,N-dimethyl-5,6,7,8-tetrahydro-4H-pyrazolo[1,5-a][1,4]diazepine-2-carboxamide] | < 10 | 0.1 to 1
CN1Cc2c(nc(OC[C@@]34CCCN3C[C@H](F)C4)nc2N2CCC[C@]3(C2)NC(=O)NC3=O)C[C@]12CCc1ccccc12 [Compound 60, (5R)-9-[(7S)-2-[[(2R,8S)-2-fluoro-1,2,3,5,6,7-hexahydropyrrolizin-8-yl]methoxy]-6-methyl-spiro[5,8-dihydropyrido[4,3-d]pyrimidine-7,1′-indane]-4-yl]-1,3,9-triazaspiro[4.5]decane-2,4-dione] | 100 to 1000 | > 10
CN(C)C(=O)c1nn2c(c1Cl)CN(c1nc(OC[C@@]34CCCN3C[C@H](F)C4)nc3c1CN(C)[C@@]1(CCc4c(F)ccc(F)c41)C3)CCC2 [Compound 61, 3-chloro-5-[(7S)-4′,7′-difluoro-2-[[(2R,8S)-2-fluoro-1,2,3,5,6,7-hexahydropyrrolizin-8-yl]methoxy]-6-methyl-spiro[5,8-dihydropyrido[4,3-d]pyrimidine-7,1′-indane]-4-yl]-N,N-dimethyl-4,6,7,8-tetrahydropyrazolo[1,5-a][1,4]diazepine-2-carboxamide] | < 10 | 0.01 to 0.1
CN(C)C(=O)c1nn2c(c1Cl)CN(c1nc(OC[C@@]34CCCN3C[C@H](F)C4)nc3c1CN(C)[C@@]1(CCc4cccc(F)c41)C3)CCC2 [Compound 63, 3-chloro-5-[(7S)-7′-fluoro-2-[[(2R,8S)-2-fluoro-1,2,3,5,6,7-hexahydropyrrolizin-8-yl]methoxy]-6-methyl-spiro[5,8-dihydropyrido[4,3-d]pyrimidine-7,1′-indane]-4-yl]-N,N-dimethyl-4,6,7,8-tetrahydropyrazolo[1,5-a][1,4]diazepine-2-carboxamide] | < 10 | 0.01 to 0.1
CN(C)C(=O)c1nn2c(c1Cl)CN(c1nc(OC[C@@]34CCCN3C[C@H](F)C4)nc3c1CN(C)[C@@]1(CCCc4ccccc41)C3)CCC2 [Compound 64, 3-chloro-5-[(7S)-2-[[(2R,8S)-2-fluoro-1,2,3,5,6,7-hexahydropyrrolizin-8-yl]methoxy]-6-methyl-spiro[5,8-dihydropyrido[4,3-d]pyrimidine-7,1′-tetralin]-4-yl]-N,N-dimethyl-4,6,7,8-tetrahydropyrazolo[1,5-a][1,4]diazepine-2-carboxamide] | < 10 | 0.01 to 0.1
CN(C)C(=O)c1nn2c(c1Cl)CN(c1nc(OC[C@@]34CCCN3C[C@H](F)C4)nc3c1CN(C)[C@@]1(CCc4c(F)cccc41)C3)CCC2 [Compound 65, 3-chloro-5-[(7S)-4′-fluoro-2-[[(2R,8S)-2-fluoro-1,2,3,5,6,7-hexahydropyrrolizin-8-yl]methoxy]-6-methyl-spiro[5,8-dihydropyrido[4,3-d]pyrimidine-7,1′-indane]-4-yl]-N,N-dimethyl-4,6,7,8-tetrahydropyrazolo[1,5-a][1,4]diazepine-2-carboxamide] | < 10 | 0.01 to 0.1
CN(C)C(=O)c1nn2c(c1Cl)CN(c1nc(OC[C@@]34CCCN3C[C@H](F)C4)nc3c1CN(C)[C@@]1(CCc4cccc(Cl)c41)C3)CCC2 [Compound 69, 3-chloro-5-[(7S)-7′-chloro-2-[[(2R,8S)-2-fluoro-1,2,3,5,6,7-hexahydropyrrolizin-8-yl]methoxy]-6-methyl-spiro[5,8-dihydropyrido[4,3-d]pyrimidine-7,1′-indane]-4-yl]-N,N-dimethyl-4,6,7,8-tetrahydropyrazolo[1,5-a][1,4]diazepine-2-carboxamide] | < 10 | 0.01 to 0.1
